Data as given in patent publication US20180193327A1, “PROPHYLACTIC LEUKOTRIENE INHIBITOR AND IMPLANT DISPLACEMENT THERAPY FOR PREVENTION AND TREATMENT OF CAPSULAR CONTRACTURE IN SILICONE BREAST AUGMENTATION” (priority 2017, published 2018).
Where “and” joins values, the source holds several entries; their conditions need not be identical. Equal values may be shown once. Marks after values point to notes of the source that are not given here.

What was measured:
[1] = tested on: capsular contracture in patients undergoing primary silicone gel breast augmentation; assay: Capsular contracture (Baker scale) at one year after primary silicone gel breast augmentation, retrospective review; format: in vivo, patients (women)
Protocol: The study was performed with a retrospective review of 1122 consecutive women undergoing primary, silicone gel breast augmentation. Over time, the author added leukotriene inhibitor therapy to the postoperative treatment of patients. The first group of patients were treated without leukotriene therapy. Consecutive patients agreeing to the off-label use of leukotriene inhibitors were then studied. The second group of consecutive patients was offered Singulair therapy postoperatively while all other aspects of the surgical technique and care remained the same. Finally, the author offered Accolate therapy to the final group of patients undergoing breast augmentation.
Patients chose augmentation with either a periareolar or inframammary approach. Silicone breast augmentation procedures were performed using a standardized, dual plane technique. All patients were treated with preoperative intravenous antibiotics, either a one-gram dose of cephazolin or 600 mg of clindamycin, selected based on allergy profiles. Prior to insertion of implants, triple-antibioic irrigation (50,000 U bacitracin, 1 g Ancef, 80 mg gentamicin) with the addition of 50 ml of povidone-iodine in 500 ml of normal saline was utilized. All implants were placed with power-free glove changes, and inserted through a skin barrier/nipple shield using Tegaderm dressings. The implant displacement therapy protocol was initiated on post-operative day two.
(§1) Patients that were administered Singulair were treated according to the method described in FIGS. 1 and 2 of the present disclosure. First, patients were evaluated clinically to see if they were a candidate for breast augmentation with physical examination and medical history. The medical history review included discussion and review of liver health, current medications, and potential contraindications or drug interactions with leukotriene inhibitors. Patients were then provided an informed consent for the use of Singulair, 10 mg daily. The informed consent reviewed the potential benefits and risks of this medication which is taken as an off-label indication. Breast augmentation was performed with either smooth or textured silicone or saline implants. On the day following surgery, Singulair therapy is initiated, 10 mg QD. In the first week following surgery, the implant displacement therapy protocol was begun for patients with smooth surface silicone implants. The implant displacement therapy protocol may also be performed, if indicated, for patients with mildly textured breast implants, but not with moderately textured or highly textured devices. Monitoring for side effects from Singulair was conducted by educating patients as to the common side effects and discussing with patients noted side effects. Singulair can be discontinued if the side effects are significant. At thirty days postoperatively, the softness of the breast implants as well as the implant movement and position was evaluated to determine if capsular contracture was present. Two more months of Singulair was prescribed. Following three total months of therapy, the breasts were evaluated for the presence of capsular contracture. Patients without clinical capsular contracture, Baker I and II, were completed with therapy. Patients with clinical capsular contracture, either Baker III or IV, were treated with an additional three months of Singulair therapy as prescribed with the continuation of implant displacement therapy protocol. If patients declined to take Singulair or had side effects from the medication, implant displacement therapy protocol was continued and patients were offered 800 units-1000 units of Vitamin E daily in lieu of Singulair.
Patients that were administered Accolate were treated according to the method described in FIGS. 1 and 2 of the present disclosure. First, patients were evaluated clinically to see if they were a candidate for breast augmentation with physical examination and medical history. […]

[2] = Side effects and discontinuation reported by patients taking leukotriene inhibitors after primary augmentation; format: in vivo, patients (women)
Protocol: as §1
Patients that were administered Accolate were treated according to the method described in FIGS. 1 and 2 of the present disclosure. First, patients were evaluated clinically to see if they were a candidate for breast augmentation with physical examination and medical history. The medical history review included discussion and review of liver health, current medications, and potential contraindications or drug interactions with leukotriene inhibitors. Patients were then provided an informed consent for the use of Accolate (Zafirlukast), 20 mg twice daily. Patients were counseled to take the medication at least one hour before meals. The informed consent reviews the potential benefits and risks of this medication which is taken as an off-label indication. Breast augmentation was performed with either smooth or textured silicone or saline implants. On the day following surgery, Accolate therapy was initiated, 20 mg BID. In the first week following surgery, the implant displacement therapy protocol was begun for patients with smooth surface silicone implants. The implant displacement therapy protocol may also be performed, if indicated, for patients with mildly textured breast implants, but not with moderately textured or highly textured devices. […]

[3] = Liver function studies (transaminases) during Accolate therapy after primary augmentation; format: in vivo, patients (women)
Protocol: At thirty days postoperatively, blood testing was performed, with a measurement of transaminase levels and liver function studies. The softness of the breast implants as well as the implant movement and position was evaluated to determine if capsular contracture was present. Patients with normal liver function studies were provided two more months of Accolate therapy. At the completion of this, two additional months of treatment, the breasts were evaluated for the presence of capsular contracture. Patients without clinical capsular contracture, Baker I and II, were completed with therapy. Patients with clinical capsular contracture, either Baker III or IV, underwent repeat liver function studies. If transaminase levels were within normal limits, an additional three months of Accolate therapy was prescribed with the continuation of breast implant displacement therapy.
If liver function studies were abnormal and transaminase levels were elevated at any time in the treatment period, Accolate therapy was immediately discontinued and repeat liver function studies were performed every 14 days until normal levels were reached. If applicable, breast implant displacement therapy was continued and patients were offered 800 units-1000 units of Vitamin E daily in lieu of Accolate. Patients undergoing treatment with Accolate were monitored with a blood testing program. Following thirty days of treatment with Accolate, patients underwent liver function studies with evaluation of transaminase enzymes, including SGOT and SGPT, or ALT and AST. Normal ranges of enzyme levels were required to continue Accolate therapy.
All patients receiving Accolate therapy underwent liver function studies four weeks following the initiation of Accolate therapy. […] Follow-up liver function studies were performed at two week intervals, until transaminases normalized. […] Liver function studies were repeated after three months of Accolate therapy for patients choosing to continue Accolate for a six month course.

[4] = FDA post-approval studies for the treatment of asthma; cited from earlier work
[5] = one year following silicone gel breast augmentation
[6] = one year following silicone gel breast augmentation, patients with contracture/patients followed

COc1cc(C(=O)NS(=O)(=O)c2ccccc2C)ccc1Cc1cn(C)c2ccc(NC(=O)OC3CCCC3)cc12 [Accolate, Zafirlukast]
Reduction of the encapsulation risk ([1]; addition of the drug in the first three months following augmentation, versus no leukotriene inhibitor): over 50%
% of Patients with Capsular Contracture ([1]; one year following primary silicone gel breast augmentation, Baker grade III or IV, three months therapy plus implant displacement protocol): 2.19%*
Percentage of patients demonstrating capsular contracture, inframammary incision [1, 5]: 1.74%
Percentage of patients demonstrating capsular contracture, periareolar incision [1, 5]: 2.31% and 2.38%
Percentage of patients demonstrating capsular contracture, total (both incisions) [1, 5]: 2.19%
Number of patients demonstrating capsular contracture, inframammary incision [1, 6]: 2/115
Number of patients demonstrating capsular contracture, total (both incisions) [1, 6]: 8/375
Number of patients with grade III/IV capsular contracture at three months that improved to grade II with an additional three months of therapy ([1]; primary augmentation, six months of therapy in total): five
Capsular contracture rate compared with patients not treated with leukotriene inhibitors ([1]; three months of therapy after primary augmentation, result in words): significantly lower
Percentage of patients discontinuing the medication because of (minor) side effects or cost ([2]; female, human, in vivo, 3 months): 6.2%
Irreversible side effects noted in the study ([2]; human, in vivo): no irreversible side effects
Patients who tolerated the medication well ([2]; primary augmentation study): ~95%
Percentage of patients with (mild) elevation of transaminases ([3]; at 30 days of treatment, 20 mg bid, medication discontinued): 0.58%
Number of patients with (mild) elevation of transaminases ([3]; at 30 days of treatment, out of 520 treated): Three and 3/520
Time for transaminases to return to normal after discontinuing the medication ([3]; two patients within two weeks, one patient within four weeks): four
Potential significant (uncommon) risks reported [4]: chemical hepatitis, liver failure, and even death
